One block for each compound: values may come before it.
Tested on: 966289-007-R4-J1-PDC complex spheroid viability
Test: Anticancer human tumor 966289-007-R4-J1-PDC patient-derived pancreatic adenocarcinoma cell line growth inhibition [RAS]
Settings: for viability, T/C: stronger effect = lower value
Summary of the method: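 Multi-cell-type spheroids: tumor cells plus HUVEC endothelial cells and mesenchymal stem cells. RAS-pathway inhibitors were combined with targeted agents, each dosed in half-log steps down from clinical Cmax, or from 10 microM when Cmax was unknown.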

[1] = curve of first compound, second compound 0.0316 µM
[2] = curve of first compound, second compound 0.1 µM
[3] = curve of first compound, second compound 0.316 µM
[4] = curve of first compound, second compound 1 µM
[5] = second compound 0.0316 µM, first compound 0.0316 µM
[6] = second compound 0.0316 µM, first compound 0.1 µM
[7] = second compound 0.0316 µM, first compound 0.316 µM
[8] = second compound 0.0316 µM, first compound 1 µM
[9] = second compound 0.1 µM, first compound 0.0316 µM
[10] = second compound 0.1 µM, first compound 0.1 µM
[11] = second compound 0.1 µM, first compound 0.316 µM
[12] = second compound 0.1 µM, first compound 1 µM
[13] = second compound 0.316 µM, first compound 0.0316 µM
[14] = second compound 0.316 µM, first compound 0.1 µM
[15] = second compound 0.316 µM, first compound 0.316 µM
[16] = second compound 0.316 µM, first compound 1 µM
[17] = second compound 1 µM, first compound 0.0316 µM
[18] = second compound 1 µM, first compound 0.1 µM
[19] = second compound 1 µM, first compound 0.316 µM
[20] = second compound 1 µM, first compound 1 µM
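Also: spheroids exposed to agents for one week before readout.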
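For viability, T/C in this document: percent viability relative to DMSO vehicle control wells as 100%.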

IC50 (curve of first compound, second compound 0.000949 µM): > 10 µM
IC50 (curve of first compound, second compound 0.003 µM): > 10 µM
IC50 (curve of first compound, second compound 0.00949 µM): > 10 µM
IC50 (curve of first compound, second compound 0.03 µM): > 10 µM
IC50 (curve of first compound, second compound 0.0949 µM): > 10 µM
IC50 (curve of first compound, second compound 0.3 µM): > 10 µM
Structure (SMILES): C[C@@H](NC(=O)c1ncnc(N)c1Cl)c1ncc(C(=O)Nc2cc(C(F)(F)F)c(Cl)cn2)s1 + CCn1c(-c2cccnc2C(C)OC)c2c3cc(ccc31)N1CCOC(CC(NC(=O)C(C(C)C)N(C)C(=O)C3(F)CCN(C(=O)C#CC(C)(C)N(C)C)CC3)C(=O)N3CCCC(N3)C(=O)OCC(C)(C)C2)C1
viability, T/C (second compound 0.000949 µM, first compound 0.0316 µM): 115%
viability, T/C (second compound 0.000949 µM, first compound 0.1 µM): 92.1%
viability, T/C (second compound 0.000949 µM, first compound 0.316 µM): 91.9%
viability, T/C (second compound 0.000949 µM, first compound 1 µM): 47.5%
viability, T/C (second compound 0.000949 µM, first compound 3.16 µM): 66.5%
viability, T/C (second compound 0.000949 µM, first compound 10 µM): 100%
viability, T/C (second compound 0.003 µM, first compound 0.0316 µM): 92.5%
viability, T/C (second compound 0.003 µM, first compound 0.1 µM): 75.4%
viability, T/C (second compound 0.003 µM, first compound 0.316 µM): 118%
viability, T/C (second compound 0.003 µM, first compound 1 µM): 61%
viability, T/C (second compound 0.003 µM, first compound 3.16 µM): 72.3%
viability, T/C (second compound 0.003 µM, first compound 10 µM): 118%
viability, T/C (second compound 0.00949 µM, first compound 0.0316 µM): 70.2%
viability, T/C (second compound 0.00949 µM, first compound 0.1 µM): 80.6%
viability, T/C (second compound 0.00949 µM, first compound 0.316 µM): 71.3%
viability, T/C (second compound 0.00949 µM, first compound 1 µM): 85%
viability, T/C (second compound 0.00949 µM, first compound 3.16 µM): 115%
viability, T/C (second compound 0.00949 µM, first compound 10 µM): 111%
viability, T/C (second compound 0.03 µM, first compound 0.0316 µM): 55.4%
viability, T/C (second compound 0.03 µM, first compound 0.1 µM): 57.1%
viability, T/C (second compound 0.03 µM, first compound 0.316 µM): 81%
viability, T/C (second compound 0.03 µM, first compound 1 µM): 73.5%
viability, T/C (second compound 0.03 µM, first compound 3.16 µM): 120%
viability, T/C (second compound 0.03 µM, first compound 10 µM): 98.5%
viability, T/C (second compound 0.0949 µM, first compound 0.0316 µM): 55.5%
viability, T/C (second compound 0.0949 µM, first compound 0.1 µM): 99.1%
viability, T/C (second compound 0.0949 µM, first compound 0.316 µM): 87%
viability, T/C (second compound 0.0949 µM, first compound 1 µM): 78.2%
viability, T/C (second compound 0.0949 µM, first compound 3.16 µM): 106%
viability, T/C (second compound 0.0949 µM, first compound 10 µM): 134%
viability, T/C (second compound 0.3 µM, first compound 0.0316 µM): 65.6%
viability, T/C (second compound 0.3 µM, first compound 0.1 µM): 91.7%
viability, T/C (second compound 0.3 µM, first compound 0.316 µM): 90.5%
viability, T/C (second compound 0.3 µM, first compound 1 µM): 117%
viability, T/C (second compound 0.3 µM, first compound 3.16 µM): 146%
viability, T/C (second compound 0.3 µM, first compound 10 µM): 105%

IC50 (compound alone, run of 06/10/2024): > 1 µM
IC50 (curve of compound): > 1 µM
Structure (SMILES): C=CC(=O)N1CCN(c2nc(OCC3CCCN3C)nc3c(F)c(-c4nc(N)cc(C)c4C(F)(F)F)c(Cl)cc23)C(C)C1 (stereo not drawn)

IC50 [1]: > 10 µM
IC50 [2]: > 10 µM
IC50 [3]: > 10 µM
IC50 [4]: > 10 µM
IC50 (curve of first compound, second compound 3.16 µM): > 10 µM
IC50 (curve of first compound, second compound 10 µM): > 10 µM
Structure (SMILES): Cc1nc(N2CCC3(CC2)COC(C)C3N)c(CO)nc1Sc1ccnc(N)c1Cl (stereo not drawn) + C#Cc1c(F)ccc2cc(O)cc(-c3ncc4c(N5CC6CCC(C5)N6)nc(OCC56CCCN5CC(F)C6)nc4c3F)c12
viability, T/C [5]: 107%
viability, T/C [6]: 92.5%
viability, T/C [7]: 111%
viability, T/C [8]: 80.5%
viability, T/C (second compound 0.0316 µM, first compound 3.16 µM): 102%
viability, T/C (second compound 0.0316 µM, first compound 10 µM): 92%
viability, T/C [9]: 107%
viability, T/C [10]: 94.7%
viability, T/C [11]: 103%
viability, T/C [12]: 92.6%
viability, T/C (second compound 0.1 µM, first compound 3.16 µM): 95.1%
viability, T/C (second compound 0.1 µM, first compound 10 µM): 90.9%
viability, T/C [13]: 91%
viability, T/C [14]: 114%
viability, T/C [15]: 115%
viability, T/C [16]: 115%
viability, T/C (second compound 0.316 µM, first compound 3.16 µM): 93.5%
viability, T/C (second compound 0.316 µM, first compound 10 µM): 91.5%
viability, T/C [17]: 93.1%
viability, T/C [18]: 112%
viability, T/C [19]: 113%
viability, T/C [20]: 107%
viability, T/C (second compound 1 µM, first compound 3.16 µM): 97.8%
viability, T/C (second compound 1 µM, first compound 10 µM): 87.3%
viability, T/C (second compound 3.16 µM, first compound 0.0316 µM): 104%
viability, T/C (second compound 3.16 µM, first compound 0.1 µM): 104%
viability, T/C (second compound 3.16 µM, first compound 0.316 µM): 113%
viability, T/C (second compound 3.16 µM, first compound 1 µM): 88.8%
viability, T/C (second compound 3.16 µM, first compound 3.16 µM): 88.2%
viability, T/C (second compound 3.16 µM, first compound 10 µM): 98%
viability, T/C (second compound 10 µM, first compound 0.0316 µM): 91.8%
viability, T/C (second compound 10 µM, first compound 0.1 µM): 97.1%
viability, T/C (second compound 10 µM, first compound 0.316 µM): 100%
viability, T/C (second compound 10 µM, first compound 1 µM): 89.8%
viability, T/C (second compound 10 µM, first compound 3.16 µM): 95.2%
viability, T/C (second compound 10 µM, first compound 10 µM): 85.5%

IC50 (curve of first compound, second compound 0.00316 µM): > 1 µM
IC50 (curve of first compound, second compound 0.01 µM): > 1 µM
IC50 [1]: > 1 µM
IC50 [2]: > 1 µM
IC50 [3]: > 1 µM
IC50 [4]: > 1 µM
Structure (SMILES): C=CC(=O)Nc1cc(Nc2nccc(-c3cn(C)c4ccccc34)n2)c(OC)cc1N(C)CCN(C)C + C=CC(=O)N1CCN(c2nc(OCC3CCCN3C)nc3c(F)c(-c4nc(N)cc(C)c4C(F)(F)F)c(Cl)cc23)C(C)C1
viability, T/C (second compound 0.00316 µM, first compound 0.00316 µM): 102%
viability, T/C (second compound 0.00316 µM, first compound 0.01 µM): 105%
viability, T/C (second compound 0.00316 µM, first compound 0.0316 µM): 101%
viability, T/C (second compound 0.00316 µM, first compound 0.1 µM): 104%
viability, T/C (second compound 0.00316 µM, first compound 0.316 µM): 104%
viability, T/C (second compound 0.00316 µM, first compound 1 µM): 71.7%
viability, T/C (second compound 0.01 µM, first compound 0.00316 µM): 95.6%
viability, T/C (second compound 0.01 µM, first compound 0.01 µM): 100%
viability, T/C (second compound 0.01 µM, first compound 0.0316 µM): 85.5%
viability, T/C (second compound 0.01 µM, first compound 0.1 µM): 97.7%
viability, T/C (second compound 0.01 µM, first compound 0.316 µM): 97.9%
viability, T/C (second compound 0.01 µM, first compound 1 µM): 71.8%
viability, T/C (second compound 0.0316 µM, first compound 0.00316 µM): 105%
viability, T/C (second compound 0.0316 µM, first compound 0.01 µM): 102%
viability, T/C [5]: 97.9%
viability, T/C [6]: 98.7%
viability, T/C [7]: 97.3%
viability, T/C [8]: 78.8%
viability, T/C (second compound 0.1 µM, first compound 0.00316 µM): 117%
viability, T/C (second compound 0.1 µM, first compound 0.01 µM): 103%
viability, T/C [9]: 101%
viability, T/C [10]: 97.4%
viability, T/C [11]: 85.4%
viability, T/C [12]: 83.9%
viability, T/C (second compound 0.316 µM, first compound 0.00316 µM): 104%
viability, T/C (second compound 0.316 µM, first compound 0.01 µM): 112%
viability, T/C [13]: 118%
viability, T/C [14]: 98.5%
viability, T/C [15]: 84.6%
viability, T/C [16]: 78.9%
viability, T/C (second compound 1 µM, first compound 0.00316 µM): 102%
viability, T/C (second compound 1 µM, first compound 0.01 µM): 95.5%
viability, T/C [17]: 95.3%
viability, T/C [18]: 100%
viability, T/C [19]: 96%
viability, T/C [20]: 67.6%

— PubChem BioAssay AID2060897 (Molecular Pharmacology Branch, DTP, NCI, 2025)
